These results are taken from patent publication US9821027B2, “Method for regenerating cartilage comprising applying a monovalent metal salt of alginic acid and SDF-1” (Mochida Pharmaceutical Co., Ltd., priority 2011, dated 2017).

Structures are written as SMILES.

Experiment [1] concerns bone marrow mesenchymal stromal cells (BMSC). Description: BMSC proliferation in alginic acid gel beads (Cell Counting Kit-8). The class given is cell-based, Japanese white rabbit. The note with it: 10 μg/ml SDF-1 or 250 μg/ml AMD3100 in alginic acid gel beads vs alginic acid only, up to 7 days, n=5. The protocol:
(§1) Bone marrows were collected from a tibia of a 15-week-old Japanese white rabbit to isolate and culture bone marrow mesenchymal stromal cells (BMSC). Isolation was carried out according to the method of Wakitani et al. (Wakitani S et al., J bone Joint Surg Am, Vol. 76, p 579, 1994). The isolated cells were incubated at 37° C. under humidified 5% CO2 and maintained in monolayer culture.
(§2) Proliferation and differentiation of BMSC were tested by embedding BMSC in alginic acid gel beads. The cells were suspended in a 2% sodium alginate solution. The suspension was dripped in a CaCl2 solution with a pipette for gelation. Ten minutes later, the resulting microcapsules were washed twice with Ca/Mg-free PBS and once with DMED-HG. The resulting beads contained 1×10^6 cells per 40 μl of beads.
The alginic acid gel beads containing 10 μg/ml of SDF-1 or 250 μg/ml of AMD3100 were cultured in DMED-HG containing 10% FBS and 1% antibiotics for 3 hours, 1 day, 2 days, 3 days and 7 days. The cells collected from the alginic acid gel beads were washed with PBS for three times, incubated in 50 mM EDTA (Gibco BRL laboratories) at 37° C. under 5% CO2. Ten minutes later, the cells were centrifuged at 1,500 g for 5 minutes for cell collection and the number of live cells was counted with Cell Counting Kit-8 (Dojindo Laboratories, Tokyo, Japan).
In general terms: Tetrazolium dyes change colour on reduction, which living cells bring about.

The test system is the same in experiment [2]. Nature of the experiment: BMSC differentiation into chondrocytes in alginic acid gel beads. The format is cell-based, Japanese white rabbit. As to conditions: 10 μg/ml SDF-1 or 250 μg/ml AMD3100 in alginic acid gel beads vs alginic acid only, 28 days. The protocol:
as §1, §2
Differentiation into chondrocytes in the alginic acid gel beads was tested by culturing BMSC-containing beads in a DMED-HG medium containing 100 μg/ml sodium pyruvate (ICN Biomedicals, Aurora, Ohio), 40 μg/ml proline (ICN Biomedicals), 50 μg/ml ascorbate-2-phosphate (Wako, Osaka, Japan), 1×10^−7M dexamethasone (ICN Biomedicals), 1% ITS plus mix (Sigma-Aldrich, St. Louis., Mo.), 1% antibiotics and 10 ng/ml recombinant human transforming growth factor […] (R&D Systems, Minneapolis, Minn.) (dissolved with 4 mM HCl containing 1 μg/ml bovine serum albumin) for 28 days. The medium was exchanged every three days. […]

With `c1cc(CN2CCCNCCNCCCNCC2)ccc1CN1CCCNCCNCCCNCC1` [AMD3100], the “BMSC proliferation (number of live cells)” value in experiment [1] was “no significant difference”. Further, the “differentiation of BMSC into chondrocytes” value in experiment [2] is reported as “no difference”.
